Some test systems named below: SK-MEL-28 melanoma; HOP-92 NSCLC; K-562 leukemia; HL-60(TB) leukemia; NCI-H226 lung; SW-620 colon; UO-31 renal; HCT-15 colon; MOLT-4 leukemia; U251 CNS; SF-539 CNS; UACC-257 melanoma; OVCAR-8 ovarian; IGROV1 ovarian; HOP-62 NSCLC; NCI-H522 lung; CCRF-CEM leukemia; KM12 colon; A498 renal; UACC-62 melanoma.
What all share (assay): inhibition of tumour cell growth, NCI panel, 48 h

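How tested: cells in 96-well plates exposed to compound for 48 hours at five concentrations. The concentration for full growth arrest is given as TGI.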

Take `c1cc2c3c(c1)c1cc4c(cc1c[n+]3CC2)OCO4`: the TGI came out at 12.3 µM with SK-MEL-28 melanoma; 106 µM in the experiment with HOP-92 NSCLC; 32.3 µM in the experiment on K-562 leukemia; 24.7 µM in the experiment with HL-60(TB) leukemia; 4.69 µM in the experiment on NCI-H226 lung; 109 µM in the experiment with SW-620 colon. Also, the TGI was above 176 µM with UO-31 renal; above 225 µM in the experiment with HCT-15 colon; 9.96 µM with MOLT-4 leukemia; 18.8 µM with U251 CNS; 15.4 µM in the experiment with SF-539 CNS; 13.5 µM in the experiment with UACC-257 melanoma. For the same compound, the TGI amounted to 25.3 µM in the experiment with OVCAR-8 ovarian; 63.5 µM with IGROV1 ovarian; 15.4 µM in the experiment with HOP-62 NSCLC; 10.1 µM in the experiment with NCI-H522 lung; 35.8 µM in the experiment on CCRF-CEM leukemia; 27.8 µM in the experiment with KM12 colon. In addition, the TGI in the experiment on A498 renal is 14.9 µM; in the experiment with UACC-62 melanoma, 16 µM.

As for `c1ccc2c(c1)c1ccccc1n2Cn1c2ccccc2c2ccccc21`, the TGI in the experiment with SK-MEL-28 melanoma, with HOP-92 NSCLC, in the experiment on K-562 leukemia, with HL-60(TB) leukemia, in the experiment with NCI-H226 lung and with SW-620 colon was above 100 µM in each case. Further, the TGI in the experiment on UO-31 renal, with HCT-15 colon, in the experiment on MOLT-4 leukemia, in the experiment on U251 CNS, in the experiment with UACC-257 melanoma and in the experiment with OVCAR-8 ovarian was above 100 µM throughout. Also, the TGI in the experiment on IGROV1 ovarian, in the experiment with HOP-62 NSCLC, with NCI-H522 lung, with CCRF-CEM leukemia, in the experiment with KM12 colon and in the experiment with A498 renal was above 100 µM each time. This compound also yielded a TGI in the experiment with UACC-62 melanoma above 100 µM.

For `COc1cc(-c2ccc(N=Nc3ccc4c(S(=O)(=O)O)cc(S(=O)(=O)O)c(N)c4c3O)c(OC)c2)ccc1N=Nc1ccc2c(S(=O)(=O)O)cc(S(=O)(=O)O)c(N)c2c1O`, the TGI in the experiment with SK-MEL-28 melanoma was above 100 µM; with HOP-92 NSCLC, above 100 µM; in the experiment on K-562 leukemia it was above 100 µM; in the experiment on HL-60(TB) leukemia, above 62.6 µM; with NCI-H226 lung, above 100 µM; in the experiment on SW-620 colon, above 100 µM. Also, the TGI in the experiment on UO-31 renal, with HCT-15 colon, in the experiment on MOLT-4 leukemia, with U251 CNS, with SF-539 CNS and in the experiment on UACC-257 melanoma was above 100 µM in each case. For the same compound, the TGI in the experiment on OVCAR-8 ovarian, in the experiment with IGROV1 ovarian, in the experiment on HOP-62 NSCLC, in the experiment with NCI-H522 lung, in the experiment on CCRF-CEM leukemia and in the experiment with KM12 colon was above 100 µM each time. For the same compound, the TGI in the experiment on A498 renal and in the experiment on UACC-62 melanoma was above 100 µM in each case.
